Results from patent US11753445B2, “Therapeutic peptides” (COHBAR, INC., priority 2016, dated 2023).

Assays:
[1] = test system: 3T3-L1 Adipocytes; test: Free fatty acid levels in cultured mouse 3T3-L1 adipocytes, isoproterenol stimulated (Example 2); format: cell-based; conditions: isoproterenol 1 nM; for Free Fatty Acid Levels in 3T3-L1 Adipocytes Expressed as a Percent of Isoproterenol Control: Percent of Control Value: test peptides 25 μM
Procedure, shortened: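 Release of free fatty acids, read at 540 nm, was stimulated with 1 nM isoproterenol for 3 h in mouse 3T3-L1 adipocytes (12–17 days of differentiation). Cells were pre-exposed to 25 μM peptide for 18–20 h plus 1 h, with peptide kept in during stimulation. Values are background-subtracted and normalised to isoproterenol alone.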

[2] = test system: Human Primary Adipocytes; test: Free fatty acid levels in cultured human primary adipocytes, isoproterenol stimulated (Example 4); format: cell-based; conditions: isoproterenol 1 nM; for Free Fatty Acid Levels in Human Primary Adipocytes Expressed as a Percent of Isoproterenol Control: Percent of Control Value: test peptides 25 μM
Procedure: Human primary adipocytes were seeded at 5,000-100,000 cells per well on 96-well, 48-well, or 24-well plates in Pre-adipocyte Medium (Zen-Bio, Durham, N.C.) and grown to confluence at 37° C. in a humidified atmosphere of 5% CO2/95% air. Two days after confluence, cells were placed in Adipocyte Differentiation Medium (Zen-Bio, Durham, N.C.) and cultured for three additional days at 37° C. in a humidified atmosphere of 5% CO2/95% air. The culture media was then replaced with Adipocyte Maintenance Medium (Zen-Bio) and the cells were maintained for an additional 11-21 days at 37° C. in a humidified atmosphere of 5% CO2/95% air with partial medium replacement every other day. Following 14-24 days of differentiation, test peptides were added at a final concentration of 25 μM and incubated for 18-20 hours in Adipocyte Maintenance Medium at 37° C. in a humidified atmosphere of 5% CO2/95%. After 18-20 hours, the media was exchanged with fresh Adipocyte Maintenance Medium containing test peptides and incubated for 1 h at 37° C. in a humidified atmosphere of 5% CO2/95%. After 1 h media was exchanged with Assay Buffer (Zen-Bio) containing isoproterenol (1 nM) (added to all samples except untreated controls) and test peptides. Cells were incubated for a further 3 hours at 37° C. in a humidified atmosphere of 5% CO2/95%. Free fatty acid concentrations in the media were determined using a Free Fatty Acid Assay Kit (Zen-Bio) according to the manufacturer's instructions using a plate reader (540 nm). Absorbance values were corrected for untreated background and expressed relative to isoproterenol treated cells. Treatment with isoproterenol (1 nM) alone was used as the free fatty acid level stimulatory control. The relative standard deviation of the isoproterenol control was <14%. […] Free fatty acid levels for insulin (100 nM) treatment were <5% of the isoproterenol control value.

[3] = test system: Human Primary Adipocytes; test: Free fatty acid levels in cultured human primary adipocytes, forskolin stimulated (Example 5); format: cell-based; conditions: forskolin 1 μM; for Free Fatty Acid Levels in Human Primary Adipocytes Expressed as a Percent of Forskolin Control: Percent of Control Value: test peptides 25 μM
Procedure, shortened: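 Differentiated human primary adipocytes (14–24 days) were exposed to peptides at 25 μM for 18–20 h and 1 h, then stimulated with 1 μM forskolin plus peptide for 3 h at 37 °C. Medium free fatty acids were measured colorimetrically (540 nm), background-corrected and expressed relative to forskolin-only cells.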

[4] = test system: Diet Induced Obese (DIO) mice; test: Body weight, blood glucose and fat mass in Diet Induced Obese mice, 10 days (Example 6); format: in vivo, Male C57BL/6 mice; conditions: male DIO mice; 10 days twice daily intraperitoneal 15 mg/kg; N = 8; mean
Procedure, shortened: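 Male DIO mice (n=8/group), randomized by blood glucose and body weight, dosed 15 mg/kg/dose once or twice daily s.c. or i.p. for 10 days vs vehicle. Body weight, blood glucose and food intake monitored; fat vs lean mass by quantitative whole-body NMR before and after dosing.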

[5] = insulin 100 nM, human primary adipocytes

H-RWQEMNYIFYPR-OH [compound 210] was tested, and the “Free Fatty Acid Levels in 3T3-L1 Adipocytes Expressed as a Percent of Isoproterenol Control: Percent of Control Value” [1] was 44.6%, the “Free Fatty Acid Levels in Human Primary Adipocytes Expressed as a Percent of Isoproterenol Control: Percent of Control Value” [2] was 75.5% and the “Free Fatty Acid Levels in Human Primary Adipocytes Expressed as a Percent of Forskolin Control: Percent of Control Value” [3] was 95.2%. The “Difference from Vehicle Control: Decrease from Baseline in Blood Glucose” value [4] was 8.25 mg/dL, the “Difference from Vehicle Control: Decrease from Baseline in Body Weight (%)” value (“Difference from Vehicle Control: Decrease … (%)” for short) [4] was −3.70% and the “Difference from Vehicle Control: Decrease from Baseline in Fat Mass” value [4] was -1.45 g.
For H-MRWQEMNYIFYPR-OH [compound 208], the “Free Fatty Acid Levels in 3T3-L1 Adipocytes Expressed as a Percent of Isoproterenol Control: Percent of Control Value” [1] was 57.9%, the “Free Fatty Acid Levels in Human Primary Adipocytes Expressed as a Percent of Isoproterenol Control: Percent of Control Value” [2] was 70.9% and the “Free Fatty Acid Levels in Human Primary Adipocytes Expressed as a Percent of Forskolin Control: Percent of Control Value” [3] was 90.2%. The “Difference from Vehicle Control: Decrease from Baseline in Blood Glucose” value [4] was -11.5 mg/dL, the “Difference from Vehicle Control: Decrease … (%)” value [4] was −5.05% and the “Difference from Vehicle Control: Decrease from Baseline in Fat Mass” value [4] was -1.87 g.
In the case of H-MRWQEMGYIFYPRNLR-OH [compound 213], the “Free Fatty Acid Levels in 3T3-L1 Adipocytes Expressed as a Percent of Isoproterenol Control: Percent of Control Value” [1] is reported as 48.1%, the “Free Fatty Acid Levels in Human Primary Adipocytes Expressed as a Percent of Isoproterenol Control: Percent of Control Value” [2] is reported as 103% and the “Free Fatty Acid Levels in Human Primary Adipocytes Expressed as a Percent of Forskolin Control: Percent of Control Value” [3] is reported as 90.8%. The “Difference from Vehicle Control: Decrease from Baseline in Blood Glucose” value [4] was -20.1 mg/dL, the “Difference from Vehicle Control: Decrease … (%)” value [4] was −4.21% and the “Difference from Vehicle Control: Decrease from Baseline in Fat Mass” value [4] was -1.16 g.
For H-MRWQEMQYIFYPRALR-OH [compound 219], the “Free Fatty Acid Levels in 3T3-L1 Adipocytes Expressed as a Percent of Isoproterenol Control: Percent of Control Value” [1] was 38.9%, the “Free Fatty Acid Levels in Human Primary Adipocytes Expressed as a Percent of Isoproterenol Control: Percent of Control Value” [2] was 69.4% and the “Free Fatty Acid Levels in Human Primary Adipocytes Expressed as a Percent of Forskolin Control: Percent of Control Value” [3] was 84.0%. For the same substance, the “Difference from Vehicle Control: Decrease from Baseline in Blood Glucose” value [4] was -17.3 mg/dL, the “Difference from Vehicle Control: Decrease … (%)” value [4] was −4.09% and the “Difference from Vehicle Control: Decrease from Baseline in Fat Mass” value [4] was -1.37 g.
H-MRWQEMGYIFYPRKLR-OH [compound 2] was tested, and the “Free Fatty Acid Levels in 3T3-L1 Adipocytes Expressed as a Percent of Isoproterenol Control: Percent of Control Value” [1] was 63.3%, the “Free Fatty Acid Levels in Human Primary Adipocytes Expressed as a Percent of Isoproterenol Control: Percent of Control Value” [2] was 107% and the “Free Fatty Acid Levels in Human Primary Adipocytes Expressed as a Percent of Forskolin Control: Percent of Control Value” [3] was 111%. For the same substance, the “Difference from Vehicle Control: Decrease from Baseline in Blood Glucose” value [4] was -4.88 mg/dL, the “Difference from Vehicle Control: Decrease … (%)” value [4] was −0.58% and the “Difference from Vehicle Control: Decrease from Baseline in Fat Mass” value [4] was -0.24 g.
H-RWQEMQYIFYPR-OH [compound 211] was tested, and the “Free Fatty Acid Levels in 3T3-L1 Adipocytes Expressed as a Percent of Isoproterenol Control: Percent of Control Value” [1] was 29.9%, the “Free Fatty Acid Levels in Human Primary Adipocytes Expressed as a Percent of Isoproterenol Control: Percent of Control Value” [2] was 79.9% and the “Free Fatty Acid Levels in Human Primary Adipocytes Expressed as a Percent of Forskolin Control: Percent of Control Value” [3] was 90.1%. The “Difference from Vehicle Control: Decrease from Baseline in Blood Glucose” value [4] was -2.25 mg/dL, the “Difference from Vehicle Control: Decrease … (%)” value [4] was −1.04% and the “Difference from Vehicle Control: Decrease from Baseline in Fat Mass” value [4] was -0.43 g.
In the case of H-MRWQEMGYIFYPRKLA-OH [compound 21], the “Free Fatty Acid Levels in 3T3-L1 Adipocytes Expressed as a Percent of Isoproterenol Control: Percent of Control Value” [1] is reported as 45.1%, the “Free Fatty Acid Levels in Human Primary Adipocytes Expressed as a Percent of Isoproterenol Control: Percent of Control Value” [2] is reported as 88.9% and the “Free Fatty Acid Levels in Human Primary Adipocytes Expressed as a Percent of Forskolin Control: Percent of Control Value” [3] is reported as 113%. For the same substance, the “Difference from Vehicle Control: Decrease from Baseline in Blood Glucose” value [4] was -4.21 mg/dL, the “Difference from Vehicle Control: Decrease … (%)” value [4] was −3.00% and the “Difference from Vehicle Control: Decrease from Baseline in Fat Mass” value [4] was -2.03 g.
Insulin [reference compound] was tested, and the “Free fatty acid levels, % of the isoproterenol control value” ([1]; insulin 100 nM, 3T3-L1 adipocytes) was less than 5%, the “Free fatty acid levels, % of the isoproterenol control value” [2, 5] was less than 5% and the “Free fatty acid levels, % of the forskolin control value” [3, 5] was less than 8%.
